Like-named read-outs stand apart in the source and are kept apart here.
Key:
CK1α = target: T1, CK1α (Homo sapiens, UniProt P48729+Q96SW2); test: Western blot, degradation of substrate protein in hPBMCs; assay type: cell-based
T1 construct: effects of the compounds of the present disclosure on the expression of target proteins in cells; endogenous in cells; host or cells: human PBMCs (Milecell Biotechnologies)

IKZF1 = target: T2, IKZF1 (Homo sapiens, UniProt Q13422+Q96SW2); test: as above; assay type: cell-based
T2 construct: effects of the compounds of the present disclosure on the expression of target proteins in cells; endogenous in cells; host or cells: human PBMCs (Milecell Biotechnologies)
T2 sequence (Q13422 whole entry): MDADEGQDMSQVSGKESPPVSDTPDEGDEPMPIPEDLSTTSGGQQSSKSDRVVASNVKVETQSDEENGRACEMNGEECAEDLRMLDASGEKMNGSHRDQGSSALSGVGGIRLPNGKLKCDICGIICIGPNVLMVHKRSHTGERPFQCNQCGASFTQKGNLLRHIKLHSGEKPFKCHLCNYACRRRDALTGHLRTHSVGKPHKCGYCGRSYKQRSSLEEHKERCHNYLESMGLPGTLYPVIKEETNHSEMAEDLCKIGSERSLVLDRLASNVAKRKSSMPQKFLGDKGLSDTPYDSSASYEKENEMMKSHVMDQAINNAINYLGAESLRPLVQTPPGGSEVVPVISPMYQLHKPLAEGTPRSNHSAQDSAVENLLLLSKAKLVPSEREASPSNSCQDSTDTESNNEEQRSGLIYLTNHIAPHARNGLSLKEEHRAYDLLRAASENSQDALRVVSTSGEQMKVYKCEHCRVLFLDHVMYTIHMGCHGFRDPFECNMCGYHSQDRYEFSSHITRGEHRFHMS
T2 sequence (Q96SW2 whole entry): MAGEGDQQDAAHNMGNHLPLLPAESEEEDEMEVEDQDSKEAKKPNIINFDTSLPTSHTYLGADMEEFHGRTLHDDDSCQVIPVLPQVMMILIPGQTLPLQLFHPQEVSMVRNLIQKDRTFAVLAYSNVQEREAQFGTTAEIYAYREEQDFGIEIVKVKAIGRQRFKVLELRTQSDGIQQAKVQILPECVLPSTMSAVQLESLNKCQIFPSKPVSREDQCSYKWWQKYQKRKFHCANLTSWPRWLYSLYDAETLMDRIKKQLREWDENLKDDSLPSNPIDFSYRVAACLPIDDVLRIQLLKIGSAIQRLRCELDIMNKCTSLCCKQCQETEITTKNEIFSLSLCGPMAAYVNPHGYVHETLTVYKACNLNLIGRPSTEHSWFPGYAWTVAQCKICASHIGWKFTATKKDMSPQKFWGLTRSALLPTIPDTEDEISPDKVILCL
T2 sequence (Q16531 whole entry partner): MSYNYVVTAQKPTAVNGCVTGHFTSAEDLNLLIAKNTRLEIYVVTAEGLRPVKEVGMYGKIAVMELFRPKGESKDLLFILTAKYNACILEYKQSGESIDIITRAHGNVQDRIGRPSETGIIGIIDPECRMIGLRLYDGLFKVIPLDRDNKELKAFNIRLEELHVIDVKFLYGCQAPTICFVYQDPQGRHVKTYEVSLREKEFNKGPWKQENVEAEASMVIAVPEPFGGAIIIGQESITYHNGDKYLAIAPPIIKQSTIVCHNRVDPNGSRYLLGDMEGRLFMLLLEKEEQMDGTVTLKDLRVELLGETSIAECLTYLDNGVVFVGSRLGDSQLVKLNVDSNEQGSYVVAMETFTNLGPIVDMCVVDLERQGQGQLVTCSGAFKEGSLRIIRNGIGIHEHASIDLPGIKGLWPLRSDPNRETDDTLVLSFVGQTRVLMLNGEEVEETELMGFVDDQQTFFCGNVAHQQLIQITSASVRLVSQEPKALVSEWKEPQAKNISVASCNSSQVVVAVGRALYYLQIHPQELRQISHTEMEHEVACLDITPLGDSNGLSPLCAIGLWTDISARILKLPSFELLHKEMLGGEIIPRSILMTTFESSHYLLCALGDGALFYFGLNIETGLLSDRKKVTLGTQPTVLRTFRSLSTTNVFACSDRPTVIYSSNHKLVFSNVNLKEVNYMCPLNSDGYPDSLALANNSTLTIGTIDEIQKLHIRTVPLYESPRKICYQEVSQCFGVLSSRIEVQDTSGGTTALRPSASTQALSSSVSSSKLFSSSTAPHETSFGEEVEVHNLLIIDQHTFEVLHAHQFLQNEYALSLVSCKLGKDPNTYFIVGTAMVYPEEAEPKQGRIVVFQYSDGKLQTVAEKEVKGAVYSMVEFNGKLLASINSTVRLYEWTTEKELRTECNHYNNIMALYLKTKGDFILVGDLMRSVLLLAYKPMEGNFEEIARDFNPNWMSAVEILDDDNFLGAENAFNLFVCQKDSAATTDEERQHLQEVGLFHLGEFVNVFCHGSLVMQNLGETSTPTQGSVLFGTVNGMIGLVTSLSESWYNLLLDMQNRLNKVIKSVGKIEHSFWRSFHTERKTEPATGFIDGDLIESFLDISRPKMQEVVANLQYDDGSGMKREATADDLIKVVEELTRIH

IKZF2 = target: T3, IKZF2 (Homo sapiens, UniProt Q96SW2+Q9UKS7); test: as above; assay type: cell-based
T3 construct: effects of the compounds of the present disclosure on the expression of target proteins in cells; endogenous in cells; host or cells: human PBMCs (Milecell Biotechnologies)
T3 sequence (Q9UKS7 whole entry): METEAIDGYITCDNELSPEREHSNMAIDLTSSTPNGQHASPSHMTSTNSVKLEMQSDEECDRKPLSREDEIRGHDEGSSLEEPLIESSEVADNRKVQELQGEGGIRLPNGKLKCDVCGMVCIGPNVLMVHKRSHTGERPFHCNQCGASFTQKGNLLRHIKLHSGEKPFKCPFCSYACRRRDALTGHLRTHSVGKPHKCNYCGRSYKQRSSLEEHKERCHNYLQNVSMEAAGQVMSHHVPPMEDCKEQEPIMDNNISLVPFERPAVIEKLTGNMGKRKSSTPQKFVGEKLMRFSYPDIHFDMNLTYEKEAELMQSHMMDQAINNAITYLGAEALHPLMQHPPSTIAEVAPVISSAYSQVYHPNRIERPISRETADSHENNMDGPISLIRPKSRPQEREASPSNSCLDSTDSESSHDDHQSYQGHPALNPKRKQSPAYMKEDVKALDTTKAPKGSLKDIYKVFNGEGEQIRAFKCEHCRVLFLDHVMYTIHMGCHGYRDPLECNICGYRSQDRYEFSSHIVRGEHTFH
T3 sequence (Q96SW2 whole entry): as the sequence (Q96SW2 whole entry) above
T3 sequence (Q16531 whole entry partner): as the sequence (Q16531 whole entry partner) above

IKZF3 = target: T4, IKZF3 (Homo sapiens, UniProt Q96SW2+Q9UKT9); test: as above; assay type: cell-based
T4 construct: effects of the compounds of the present disclosure on the expression of target proteins in cells; endogenous in cells; host or cells: human PBMCs (Milecell Biotechnologies)
T4 sequence (Q9UKT9 whole entry): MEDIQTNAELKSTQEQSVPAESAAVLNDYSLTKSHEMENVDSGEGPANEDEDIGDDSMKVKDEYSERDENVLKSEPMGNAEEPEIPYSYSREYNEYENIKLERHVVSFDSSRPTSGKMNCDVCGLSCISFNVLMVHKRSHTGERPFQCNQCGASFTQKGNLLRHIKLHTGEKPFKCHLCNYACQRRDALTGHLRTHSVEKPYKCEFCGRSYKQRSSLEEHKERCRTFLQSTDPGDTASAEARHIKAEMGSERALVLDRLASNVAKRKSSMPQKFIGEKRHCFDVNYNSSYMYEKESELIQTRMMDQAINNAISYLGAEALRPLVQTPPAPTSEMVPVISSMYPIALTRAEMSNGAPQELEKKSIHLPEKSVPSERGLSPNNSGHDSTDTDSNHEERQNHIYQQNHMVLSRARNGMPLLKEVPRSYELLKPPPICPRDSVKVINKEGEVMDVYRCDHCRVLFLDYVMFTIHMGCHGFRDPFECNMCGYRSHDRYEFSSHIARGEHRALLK
T4 sequence (Q96SW2 whole entry): as the sequence (Q96SW2 whole entry) above
T4 sequence (Q16531 whole entry partner): as the sequence (Q16531 whole entry partner) above

WEE1 = target: T5, WEE1 (Homo sapiens, UniProt P30291+Q96SW2); test: as above; assay type: cell-based
T5 construct: effects of the compounds of the present disclosure on the expression of target proteins in cells; endogenous in cells; host or cells: human PBMCs (Milecell Biotechnologies)
T5 sequence (P30291 whole entry): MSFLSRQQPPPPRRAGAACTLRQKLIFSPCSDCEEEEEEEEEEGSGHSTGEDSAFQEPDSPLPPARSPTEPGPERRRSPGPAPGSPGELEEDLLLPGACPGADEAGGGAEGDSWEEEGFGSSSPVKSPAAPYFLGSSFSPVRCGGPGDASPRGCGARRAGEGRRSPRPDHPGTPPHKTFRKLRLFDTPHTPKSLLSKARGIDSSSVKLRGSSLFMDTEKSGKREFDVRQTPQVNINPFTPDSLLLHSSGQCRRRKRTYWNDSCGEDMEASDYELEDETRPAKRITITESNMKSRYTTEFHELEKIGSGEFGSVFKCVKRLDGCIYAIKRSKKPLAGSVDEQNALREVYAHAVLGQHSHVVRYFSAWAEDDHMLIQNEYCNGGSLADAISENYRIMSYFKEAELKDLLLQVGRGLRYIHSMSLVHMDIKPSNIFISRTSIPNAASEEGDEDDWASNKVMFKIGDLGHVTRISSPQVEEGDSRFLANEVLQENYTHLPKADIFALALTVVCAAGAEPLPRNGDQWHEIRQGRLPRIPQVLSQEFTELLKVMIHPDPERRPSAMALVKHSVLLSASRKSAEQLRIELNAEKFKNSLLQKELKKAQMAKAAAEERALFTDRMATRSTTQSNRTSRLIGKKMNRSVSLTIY
T5 sequence (Q96SW2 whole entry): as the sequence (Q96SW2 whole entry) above
T5 sequence (Q16531 whole entry partner): as the sequence (Q16531 whole entry partner) above

GSPT1 = test: as above; assay type: cell-based, Human
[1] = target: T6, human Cereblon WT GST-tagged protein (Homo sapiens, UniProt Q96SW2); test: CRBN-binding affinity, HTRF (CEREBLON BINDING kit)
T6 construct: purchased CISBIO 64BDCRBNPEH
T6 sequence (Q96SW2 whole entry): as the sequence (Q96SW2 whole entry) above

[2] = system: Human multiple myeloma cell (MM.1S); test: Tumor cell proliferation inhibition (CellTiter-Meiluncell luminescent cell viability assay); details: Homo sapiens, MM1.S, 96 h; for IC50: read-out: Inhibitory activity (IC50, nM) on tumor cell proliferation, MM.1S; for inhibition at 0.01 µM: read-out: Inhibition Rate at 10 nM (%); for inhibition at 0.5 µM: read-out: Inhibition Rate at 500 nM (%)
[3] = system: Human breast cancer cell (MCF-7); test: as above; details: MCF7, 96 h; for inhibition at 0.01 µM: read-out: Inhibition Rate at 10 nM (%); for inhibition at 0.5 µM: read-out: Inhibition Rate at 500 nM (%)
Method: (§1) The tumor cells used herein were cultured in a cell culture medium listed in table 2 at 37°C in an incubator with 5% CO2. Prior to experimentation, all cell lines used were correctly identified by STR profiling, and tested negative for mycoplasma contamination using a mycoplasma detection kit through routine screenings.
(§2) The IC50 values of the compounds of the present disclosure (including the compounds in Table 1 and Examples) were determined using the CellTiter-Meiluncell Luminescent Cell Viability Assay Kit from Dalian Meilun Biotech Co., Ltd. The detailed procedure is as follows: Tumor cells were seeded in 96-well cell culture plates at the densities specified in Table 3. On the following day, the test compounds of the present disclosure were subjected to serial dilution. The dilution can be performed according to one of the following two methods: • (1) The first dilution method: The test compounds of the present disclosure (including the compounds in Table 1 and Examples) were subjected to 5-fold serial dilutions starting from a highest concentration of 2000 µM, resulting in a total of 9 concentrations from high to low (2000, 400, 80, 16, 3.2, 0.64, 0.128, 0.0256, 0.00512 µM). Subsequently, 0.5 µL of the test compound dilution was transferred into the 96-well plate containing the cells, with each well containing 100 µL of cell culture medium. […] Into the 96-well plate, the diluted test compounds and corresponding detection reagents were added, resulting in final test compound concentrations of 500 nM and 10 nM, respectively. The experimental procedure is described below using the diluted 2 µM test compound as an example.
(§3) 0.5 µL of the aforementioned diluted compound of the present disclosure (including the compounds in Table 1 and Examples) was added to the seeded cells in 100 µL of medium, yielding a final test compound concentration of 10 nM. After the cells were treated with the compounds of the present disclosure for a specified period, the cell viability assay reagent was added to the culture medium according to the kit's instructions to determine cell viability. […] All controls were treated using the same procedure as the compounds of the present disclosure. The growth inhibition curves for the compounds of the present disclosure were plotted using Prism GraphPad software, and the IC50 values were calculated therefrom.

[4] = system: Human T lymphocytic leukemia cell line: Jurkat; test: as above; details: 96 h; for IC50: read-out: Inhibitory activity (IC50, nM) on tumor cell proliferation, Jurkat
Method: as §1, §2, §3

[5] = system: Human non-small cell lung cancer cell line: NCI-H1975; test: as above; details: NCI-H1975, 96 h, read-out: Inhibitory activity (IC50, nM) on tumor cell proliferation, H1975
Method: as §1, §2, §3

[6] = system: Human mantle cell lymphoma cell line: JEKO-1; test: as above; details: JeKo-1, 96 h, read-out: Inhibitory activity (IC50, nM) on tumor cell proliferation, JEKO-1
Method: as §1, §2, §3

[7] = system: Human gastric cancer cell line: MGC803; test: as above; details: MGC-803, read-out: Inhibitory activity (IC50, nM) on tumor cell proliferation, MGC803
Method: as §2, §3

[8] = system: Human monocytic leukemia cell line: THP-1; test: as above; details: THP-1, 96 h; for inhibition at 0.01 µM: read-out: Inhibition Rate at 10 nM (%); for inhibition at 0.5 µM: read-out: Inhibition Rate at 500 nM (%)
Method: as §1, §2, §3

[9] = system: Human colon cancer cell line: SW620; test: as above; details: SW-620, 96 h; for inhibition at 0.01 µM: read-out: Inhibition Rate at 10 nM (%); for inhibition at 0.5 µM: read-out: Inhibition Rate at 500 nM (%)
Method: as §1, §2, §3

[10] = system: Human malignant melanoma cell line: A375; test: as above; details: A-375, 96 h; for inhibition at 0.01 µM: read-out: Inhibition Rate at 10 nM (%); for inhibition at 0.5 µM: read-out: Inhibition Rate at 500 nM (%)
Method: as §1, §2, §3

[11] = system: Human multiple myeloma peripheral blood B lymphocyte cell (RPMI-8226); test: as above; details: RPMI-8226, 96 h; for inhibition at 0.5 µM: read-out: Inhibition Rate at 500 nM (%)
Method: as §1, §2, §3

[12] = system: Human acute T lymphocytic leukemia cell (Molt4); test: as above; details: MOLT-4, 96 h
[13] = system: Human myeloid monocytic leukemia cell (MV-4-11); test: as above; details: MV4-11, 96 h
[14] = system: Human T cell acute lymphoblastic leukemia cell (CCRF-CEM); test: as above; details: 96 h
Method: as §1, §2, §3

[15] = system: Human acute myeloid leukemia cell line: Kasumi-1; test: as above; details: Kasumi 1, 96 h
[16] = Western blot, 24 hours of compound treatment, compounds tested at 50 nM and 500 nM (concentration for the table not stated)
[17] = CRBN binding, HTRF, 3 hours at room temperature; read-out: HTRF IC50
[18] = 24 hours treatment, compounds at 50 nM and 500 nM (concentration behind the class not stated)
[19] = read-out: Inhibition Rate at 0.5 µM (%)
[20] = read-out: Inhibition Rate at 2 µM (%)
[21] = read-out: Inhibition Rate at 10 nM (%)
[22] = read-out: Inhibition Rate at 500 nM (%)

T1 sequence (P48729 whole entry): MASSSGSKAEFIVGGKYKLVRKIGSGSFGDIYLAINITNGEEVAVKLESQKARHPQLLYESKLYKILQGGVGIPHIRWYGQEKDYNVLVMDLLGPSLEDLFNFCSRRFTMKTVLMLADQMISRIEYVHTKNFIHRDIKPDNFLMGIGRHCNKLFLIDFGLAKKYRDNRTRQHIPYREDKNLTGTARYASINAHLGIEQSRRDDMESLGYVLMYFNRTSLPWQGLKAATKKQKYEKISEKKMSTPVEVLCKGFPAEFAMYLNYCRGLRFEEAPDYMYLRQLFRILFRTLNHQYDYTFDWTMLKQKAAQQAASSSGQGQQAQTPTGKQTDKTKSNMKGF
T1 sequence (Q96SW2 whole entry): as the sequence (Q96SW2 whole entry) above
T1 sequence (Q16531 whole entry partner): as the sequence (Q16531 whole entry partner) above

| IC50 [5] | IC50 [1, 17] | Compound | CK1α substrate protein remaining % (CK1α; [16]) | IKZF 1 substrate protein remaining % (IKZF1; [16]) | IKZF2 substrate protein remaining % (IKZF2; [16]) | IKZF3 substrate protein remaining % (IKZF3; [16]) | Wee1 substrate protein remaining % (WEE1; [16]) | GSPT1 substrate protein remaining % (GSPT1; [16]) | IC50 [2] | IC50 [4] | IC50 [6] | inhibition at 0.01 µM [3] | inhibition at 0.01 µM [8] | inhibition at 0.5 µM [8] | inhibition at 0.01 µM [9] | inhibition at 0.5 µM [9] | inhibition at 0.01 µM [10] | inhibition at 0.5 µM [10] | further results |
| --- | --- | --- | --- | --- | --- | --- | --- | --- | --- | --- | --- | --- | --- | --- | --- | --- | --- | --- | --- |
| 500 to 1000 nM | 500 to 1000 nM | Cc1ccc(Sc2ccccc2N2CCN(Cc3ccc4c(c3)C(=S)N(C3CCC(=O)NC3=O)C4)CC2)c(C)c1 (centres unmarked) [GT-05038, 3-(6-((4-(2-((2,4-dimethylphenyl)thio)phenyl)piperazin-1-yl)methyl)-1-thioxoisoindolin-2-yl)piperidine-2,6-dione] | B (80%< substrate protein remaining %≤ 100%) | A (0% ≤ substrate protein remaining % ≤ 80%) | A (0% ≤ substrate protein remaining % ≤ 80%) | A (0% ≤ substrate protein remaining % ≤ 80%) | B (80%< substrate protein remaining %≤ 100%) | A (0% ≤ substrate protein remaining % ≤ 80%) | 100 to 500 nM | 500 to 1000 nM |  |  |  |  |  |  |  |  |  |
| 100 to 500 nM | 500 to 1000 nM | O=C1CCC(N2Cc3cc(CN4CCN(C(c5ccccc5)c5ccccc5)CC4)ccc3C2=S)C(=O)N1 (centres unmarked) [GT-05104, 3-(5-((4-benzhydrylpiperazin-1-yl)methyl)-1-thioxoisoindolin-2-yl)piperidine-2,6-dione] | B (80%< substrate protein remaining %≤ 100%) | B (80%< substrate protein remaining %≤ 100%) | B (80%< substrate protein remaining %≤ 100%) | B (80%< substrate protein remaining %≤ 100%) | A (0% ≤ substrate protein remaining % ≤ 80%) | A (0% ≤ substrate protein remaining % ≤ 80%) | < 5 nM | 100 to 500 nM | 100 to 500 nM |  |  |  |  |  |  |  | IC50 [7]: 50 to 100 nM |
|  |  | CC(C)c1cc2c(C3=CCN(Cc4ccc5c(c4)CN(C4CCC(=O)NC4=O)C5=S)CC3)ncnc2s1 (centres unmarked) [GT-09317, 3-(5-((4-(6-isopropylthieno[2,3-d]pyrimidin-4-yl)-3,6-dihydropyridin-1(2H)-yl)methyl)-1-thioxoisoindolin-2-yl)piperidine-2,6-dione] |  |  |  |  |  |  |  |  |  | 5 to 10% | 80 to 100% | 100 to 110% | 80 to 100% | 100 to 110% | 50 to 60% | 80 to 100% | CK1α substrate protein remaining % (CK1α; [18]): B (80%< substrate protein remaining %≤ 100%); IKZF 1 substrate protein remaining % (IKZF1; [18]): A (0% ≤ substrate protein remaining % ≤ 80%); IKZF2 substrate protein remaining % (IKZF2; [18]): A (0% ≤ substrate protein remaining % ≤ 80%); IKZF3 substrate protein remaining % (IKZF3; [18]): A (0% ≤ substrate protein remaining % ≤ 80%); Wee1 substrate protein remaining % (WEE1; [18]): A (0% ≤ substrate protein remaining % ≤ 80%); GSPT1 substrate protein remaining % (GSPT1; [18]): A (0% ≤ substrate protein remaining % ≤ 80%); inhibition at 0.5 µM [1, 19]: 40 to 53%; inhibition at 2 µM [1, 20]: 80 to 100%; inhibition at 0.01 µM [2]: 10 to 20%; inhibition at 0.5 µM [2]: 60 to 70%; inhibition at 0.5 µM [3]: 80 to 100% |
|  |  | O=C1CCC(N2Cc3cc(CN4CC=C(c5ncnc6sc(-c7ccccc7)cc56)CC4)ccc3C2=S)C(=O)N1 (centres unmarked) [GT-09319, 3-(5-((4-(6-phenylthieno[2,3-d]pyrimidin-4-yl)-3,6-dihydropyridin-1(2H)-yl)methyl)-1-thioxoisoindolin-2-yl)piperidine-2,6-dione] |  |  |  |  |  |  |  |  |  | 20 to 30% | 80 to 100% | 80 to 100% | 70 to 80% | 80 to 100% | 40 to 50% | 80 to 100% | CK1α substrate protein remaining % (CK1α; [18]): B (80%< substrate protein remaining %≤ 100%); IKZF 1 substrate protein remaining % (IKZF1; [18]): A (0% ≤ substrate protein remaining % ≤ 80%); IKZF2 substrate protein remaining % (IKZF2; [18]): A (0% ≤ substrate protein remaining % ≤ 80%); IKZF3 substrate protein remaining % (IKZF3; [18]): A (0% ≤ substrate protein remaining % ≤ 80%); Wee1 substrate protein remaining % (WEE1; [18]): A (0% ≤ substrate protein remaining % ≤ 80%); GSPT1 substrate protein remaining % (GSPT1; [18]): A (0% ≤ substrate protein remaining % ≤ 80%); inhibition at 0.5 µM [1, 19]: 60 to 80%; inhibition at 2 µM [1, 20]: 80 to 100%; inhibition at 0.01 µM [11, 21]: 5 to 10%; inhibition at 0.5 µM [11]: 50 to 60%; inhibition at 0.5 µM [3]: 70 to 80% |
|  |  | Nc1cccc2c1CN(C1CCC(=O)NC1=O)C2=O (centres unmarked) [lenalidomide, reference compound] |  |  |  |  |  |  |  |  |  | 0 to 5% | 0 to 5% | 5 to 10% | 5 to 10% | 5 to 10% | 5 to 10% | 5 to 10% | inhibition at 0.01 µM [2]: 10 to 20%; inhibition at 0.5 µM [2]: 30 to 40%; inhibition at 0.5 µM [11]: 10 to 20%; inhibition at 0.01 µM [12, 21]: 0 to 5%; inhibition at 0.5 µM [12, 22]: 0 to 5%; inhibition at 0.01 µM [13, 21]: 10 to 18%; inhibition at 0.5 µM [13, 22]: 10 to 18%; inhibition at 0.01 µM [14, 21]: 10 to 20%; inhibition at 0.5 µM [14, 22]: 10 to 20%; inhibition at 0.01 µM [15, 21]: 5 to 10%; inhibition at 0.5 µM [15, 22]: 0 to 5%; inhibition at 0.01 µM [4, 21]: 20 to 30%; inhibition at 0.5 µM [4, 22]: 10 to 20% |

| Compound | IC50 [5] | IC50 [1, 17] | CK1α substrate protein remaining % (CK1α; [16]) | IKZF 1 substrate protein remaining % (IKZF1; [16]) | IKZF2 substrate protein remaining % (IKZF2; [16]) | IKZF3 substrate protein remaining % (IKZF3; [16]) | Wee1 substrate protein remaining % (WEE1; [16]) | GSPT1 substrate protein remaining % (GSPT1; [16]) | IC50 [2] | IC50 [4] | IC50 [6] | inhibition at 0.01 µM [3] | inhibition at 0.01 µM [8] | inhibition at 0.5 µM [8] | inhibition at 0.01 µM [9] | inhibition at 0.5 µM [9] | inhibition at 0.01 µM [10] | inhibition at 0.5 µM [10] | further results |
| --- | --- | --- | --- | --- | --- | --- | --- | --- | --- | --- | --- | --- | --- | --- | --- | --- | --- | --- | --- |
| O=C1CCC(N2Cc3cc(CN4CCC(N(c5ccccc5)c5ccccc5)CC4)ccc3C2=S)C(=O)N1 (centres unmarked) | 5 to 10 nM |  | B (80%< substrate protein remaining %≤ 100%) | A (0% ≤ substrate protein remaining % ≤ 80%) | A (0% ≤ substrate protein remaining % ≤ 80%) | A (0% ≤ substrate protein remaining % ≤ 80%) | A (0% ≤ substrate protein remaining % ≤ 80%) | A (0% ≤ substrate protein remaining % ≤ 80%) | < 5 nM | < 5 nM | < 5 nM |  |  |  |  |  |  |  | IC50 ([1]; read-out: HTRF IC50; CRBN binding, HTRF, 3 hours at room temperature): 100 to 500 nM; IC50 ([3]; read-out: Inhibitory activity (IC50, nM) on tumor cell proliferation, MCF7): 10 to 50 nM; IC50 [7]: 5 to 10 nM |
| O=C1CCC(N2Cc3cc(CN4CC=C(c5ccco5)CC4)ccc3C2=S)C(=O)N1 (centres unmarked) [GT-05147, 3-(5-((4-(furan-2-yl)-3,6-dihydropyridin-1(2H)-yl)methyl)-1-thioxoisoindolin-2-yl)piperidine-2,6-dione] |  | < 100 nM | B (80%< substrate protein remaining %≤ 100%) | A (0% ≤ substrate protein remaining % ≤ 80%) | A (0% ≤ substrate protein remaining % ≤ 80%) | A (0% ≤ substrate protein remaining % ≤ 80%) | A (0% ≤ substrate protein remaining % ≤ 80%) | A (0% ≤ substrate protein remaining % ≤ 80%) | 10 to 50 nM | 100 to 500 nM | 100 to 500 nM |  |  |  |  |  |  |  |  |
